Where two headings read alike, the source gives them in different places. Where no end group is shown, it is not given here.
Tests used:
HeLa cells = test: Cellular uptake of FITC-labelled peptide, fluorescence microscopy; assay type: cell-based; details: for entry of free peptide into cells: peptide alone, without Pep-1
Description: HeLa cells were cultured in Dulbecco's modified Eagle's medium (DMEM) supplemented with 10% fetal calf serum at 37° C. in a humidified atmosphere containing 5% CO2.). H9 cell lines (ATCC number: HTB-176) were stably transfected with pNL4.3 V−R+plasmid (AIDS Research Reference Reagent Program, National Institutes of Health (NIH), USA) and therefore expressed in a constitutive manner all HIV-1 proteins but Env encoded proteins. They were cultured in RPMI-1640 medium supplemented with 2 mM glutamine, 10% (w/v) foetal calf serum (FCS), 1% antibiotics (streptomycin […], penicillin, 10 000 IU/ml), as well as G418 1 mg/ml. Cells were grown on glass coverslips to 75% confluency, then transfected with pcDNA3-p66RT plasmid (this plasmid contains the 66 subunit of HIV-1 Reverse Transcriptase cloned in pcDNA3.1 (+) vector (Invitrogen, USA), using HindIII and BamHI restriction site) using Lipofectamine 2000 reagent according to manufacturer' instructions (Invitrogen). Hela cells were subsequently cultured for 32 h, before incubation with FITC-PAW or FITC-PAW/Pep-1 (complex obtained at a molar ratio 1/10) for 1 h. Coverslips were extensively rinsed with PBS and cells were fixed in 4% paraformaldehyde for […] and permeabilized in 0.2% Triton. After saturation in PBS supplemented with bovine serum albumine 1% for 1 h, cells were incubated overnight with monoclonal 8C4 anti-HIV-1 RT antibody (AIDS Research Reference Reagent Program, NIH) (diluted 1:100 in PBS-BSA 1%), followed by Alexa-555 anti-mouse (Molecular Probes).
Immunofluorescence detection of HIV-1 RT and FITC-PAW was performed by epifluorescence microscopy using a PL APO 1.4 oil PH3 objective on a LEICA DMRA 1999 microscope. 3D reconstitution of the 20 frames realized from z stacking was performed using Imaris 6.0 software.
Cells were grown on acid-treated glass coverslips to 60% confluence. Once rinsed with PBS, cells were overlaid with preformed complexes and incubated for 40 minutes at 37° C. Cells were then rinsed twice with PBS and fixed […] at Room Temperature) (RT° in Paraformaldehyde 4%, and washed three times in PBS+2% BSA. They were then permeabilised by incubation 10 min RT° in PBS+0.5% Triton X-100, washed again 3 times in PBS+2% BSA. After blocking 20 min in the same solution, the coverslips were placed in a humid chamber, overlaid with 75 μl of primary antibody against Integrase, and incubated for 2 h at 37° C. Coverslips were then rinced once with PBS and incubated with 75 μl of anti rabbit antibody diluted 1/10000 in PBS. After immobilisation on the cover using Prolong Gold antifade reagent, cellular localization of Integrase as well as FITC-labelled peptides was monitored by fluorescence microscopy, using a PL APO 1.4 oil PH3 objective on a LEICA DMRA 1999 microscope. […]

HIV-1 RT [1] = molecular target: T1, HIV-1 RT (Human immunodeficiency virus type 1 group M subtype B, UniProt P12497); test: RT pull-down with peptide-CNBr Sepharose beads, H9 cell lysates; assay type: binding; details: Western blotting
T1 construct: asymmetric heterodimer that consists of two subunits, p66 and p51; expressed in transfected cells; host or cells: H9 cells (ATCC HTB-176) stably transfected with pNL4.3 V-R+
Description: For RT pull down experiments, PAW (SEQ ID NO: 18) was incubated with 500 μl of activated CNBr-activated Sepharose 4B beads at 4° C. overnight. After centrifugation, supernatants were removed and the beads were incubated with Glycine pH.8.0 for 2 hrs at 4° C. with gentle stirring. The beads were then washed with 0.1 M sodium acetate buffer (pH 4.0), then 0.5 M Bicarbonate buffer, and finally in PBS, three times each. The peptide bound to the beads were then saturated for 30 min in PBS/BSA 0.1% and then incubated for 1 h at 4° C. with equal amounts of H9 cells lysed for […] on ice in Lysis buffer (Tris 20 mM, pH 7.2, NaCl 400 mM, EDTA 1 mM, DTT 1 mM, Protease inhibitors EDTA free) and sonicated 2×5 sec. at 20%. Beads were washed with Lysis buffer then twice with PBS and the bound proteins were finally separated on 15% SDS-PAGE gel and analyzed by Western Blotting using monoclonal 8C4 anti-HIV-1 RT antibody.

HIV-1 RT [2] = molecular target: T2, HIV-1 RT (Human immunodeficiency virus type 1 group M subtype B, UniProt P03366); test: biochemical
T2 construct: The heterodimeric p66/p51 RT was eluted with an imidazole gradient; p66 and p51 derived from p66 by proteolytic cleavage of the C-terminal RNAse H domain; made in house; host or cells: E. coli (M15 for the His-tagged subunits)
Description: RNA-dependent-DNA RT-polymerase activity was measured in a standard reaction assay using poly(rA)-(dT)15 as template/primer as described in Restle et al. (1990). Ten microliters of reverse transcriptase (RT) at 20 nM was incubated at 37° C. for 30 min with 20 μL of reaction buffer (50 mM Tris, pH 8.0, 80 mM KCl, 6 mM MgCl2, 5 mM DTT, 0.15 μM poly(rA-dT), 15 μM dTTP, 0.3 μCi 3H-dTTP). For peptide evaluation, HIV-1 RT was incubated with increasing concentrations of peptide inhibitors for […], and polymerase reaction was initiated by adding reaction buffer. Reactions were stopped by precipitation of nucleic acids with 5 ml of 20% trichloroacetic acid (TCA) solution for 2 h on ice, then filtered using a multiwell-sample collector (Millipore), and washed with 5% TCA solution. Filters were dried at 55° C. for 30 min and radionucleotide incorporation was determined by liquid scintillation spectrometry.
A series of peptides have been derived from Pep-A sequence (SEQ ID NO: 28), which is derived from HIV-1 reverse transcriptase. First, P1 peptide (SEQ ID NO: 1) was obtained by removing the N-terminal arginine of Pep-A. Then, additional peptides were generated by performing an alanine scan on P1. P1-derived peptides were evaluated using a standard polymerase RT assay. Reported data correspond to the mean of three separate experiments.

HIV-1 RT [3] = molecular target: T2, HIV-1 RT; test: RT dissociation kinetics with bis-ANS, stopped flow; details: read-out: dissociation rate constant kdis of RT
Description: Dissociation kinetics of HIV-1 RT were monitored by using 4,4′-Bis(1-anilinonaphthalene 8-sulfonate (bis-ANS) as extrinsic probe. Changes in bis-ANS fluorescence provide a good signal to probe variation in the exposure of the hydrophobic regions associated to RT dissociation in a time-dependent manner. 0.5 μM of RT was dissociated in presence of 0.8 μM of bis-ANS, by adding 10% acetonitrile in the absence or in the presence of 10 μM PAW. Kinetics of dissociation were monitored by following fluorescence resonance energy transfer between tryptophan residues of RT and bis-ANS. Excitation of RT-Trp residues was performed at 290 nm and the increase of bis-ANS fluorescence emission at 490 nm was detected through a 420 nm cut-off filter. Data acquisition and analysis were performed using KinetAsyst 3 software (Hi-Tech Scientific, Salisbury, England-UK) and traces were fitted according to a single exponential equation.

[4] = tested on: uninfected PHA-P-activated PBMC; test: Cytotoxicity, MTT assay in uninfected PBMC; assay type: cell-based
Description: The anti-HIV activities of the peptides were assayed according to the methods described in Roisin et al. (2004). Phytohemagglutinin-P(PHA-P)-activated peripheral blood mononuclear cells (PBMC) treated by increasing concentrations of peptide (from 100 to 0.1 nM), one hour later, were infected with hundred 50% tissue culture infectious doses (TCID50) per 100,000 cells of the HIV-1-LAI strain (Barre-Sinoussi et al., 1983). This virus was amplified in vitro on PHA-P-activated PBMC. Viral stock was titrated using PHA-P-activated PBMC, and 50% TCID50 were calculated using Kärber's formula (Kärber, 1931). Samples were maintained throughout the culture, and cell supernatants were collected at day 7 post-infection and stored at −20° C. Viral replication was measured by quantifying reverse transcriptase (RT) activity in cell culture supernatants. In parallel, cytotoxicity of the compounds was evaluated in uninfected PHA-P-activated PBMC by colorimetric 3-(4-5 dimethylthiazol-2-yl)2,5diphenyl tetrazolium bromite (MTT) assay on day 7 (as described in Mossmann, 1983). Experiments were performed in triplicate and repeated with another blood donor. […]

HIV-1 integrase [5] = molecular target: T3, HIV-1 integrase (Human immunodeficiency virus type 1 group M subtype B, UniProt P04585); test: IN 3′-processing activity, gel-electrophoresis procedure; assay type: biochemical; details: read-out: IC50 3′-proc
T3 construct: Integrase is a 32 kDA viral protein that is biologically active under a multimeric form
Description: In order to verify the influence of the fluorescent probe attached to PAW on the peptide-integrase interaction, a standard gel-electrophoresis procedure (as described in Smolov et al., 2006) was carried out to examine the IN 3′-processing activity as a function of either unlabeled or fluorescein-labeled PAW concentration.

HIV-1 p51 = molecular target: T4, HIV-1 p51 (Human immunodeficiency virus type 1 group M subtype B, UniProt P03366); test: Size exclusion chromatography of p51 dimerization; details: p51 3.5 μM, FITC-labelled PAW 20 μM, 1 h
T4 construct: His; made in house; host or cells: E. coli M15
Description: Chromatography was performed using one (Phenomenex 53000) or two HPLC columns in series (Phenomenex 53000 followed by Phenomenex 52000; both 7.5 mm×300 mm). Samples containing 3 to 10 μM of RT or p51 were applied onto one or two HLPC columns and eluted with 200 mM potassium phosphate (pH: 7.0) at a flow rate of 0.5 ml·min^−1 (5).

RT:p/t = molecular target: T5, RT:p/t (Human immunodeficiency virus type 1 group M subtype B, UniProt P03366); test: Steady-state fluorescence titration, PAW binding to RT:p/t; parameters: species or system HIV-1
T5 construct: The heterodimeric p66/p51 RT was eluted with an imidazole gradient; p66 and p51 derived from p66 by proteolytic cleavage of the C-terminal RNAse H domain; made in house; host or cells: E. coli (M15 for the His-tagged subunits)
Description: (§1) Fluorescence experiments were performed in buffer containing 50 mM Tris-HCl, pH 8.0, 50 mM KCl, 10 mM MgCl2 and 1 mM DTT, at 25° C., using a SPEX-PTI spectrofluorimeter in a 1 cm path-length quartz cuvette, with a band-pass of 2 nm for excitation and emission, respectively. Excitation was performed at 492 nm and emission spectra were recorded from 500 to 600 nm. According fluorescence experiments, a fixed concentration of FAM-labelled (19/36) p/t (50 nM) or of FITC-PAW (200 nM) was titrated with increasing protein concentrations from 5 nM to 1 μM. Data were fitted as described in Agopian et al. (2007) and Rittinger et al. (1995), using a quadratic equation (GraFit, Erithacus Software).

heterodimeric RT = molecular target: T6, heterodimeric RT (Human immunodeficiency virus type 1 group M subtype B, UniProt P03366); test: Steady-state fluorescence titration of FITC-PAW with RT; parameters: species or system HIV-1; details: 200 nM FITC-PAW titrated with RT; read-out: dissociation constant (Kd), binding to heterodimeric RT
T6 construct: The heterodimeric p66/p51 RT was eluted with an imidazole gradient; p66 and p51 derived from p66 by proteolytic cleavage of the C-terminal RNAse H domain; made in house; host or cells: E. coli (M15 for the His-tagged subunits)
Description: as §1

HIV-1 integrase [6] = molecular target: T7, HIV-1 integrase (Human immunodeficiency virus type 1 group M subtype B, UniProt P12497); test: Integrase pull-down with CNBr Sepharose beads; assay type: binding; details: H9 or HeLa HA-IN cell lysates, western blotting
T7 construct: expressed in transfected cells; host or cells: H9 cells with pNL4.3 V-R+; HeLa cells stably expressing HA-tagged IN
Description: Peptides were resuspended in buffer A (1 mg/ml), sonicated 4 min, and incubated with 500 μl (gel volume) of activated CNBr-activated Sepharose 4B sepharose© beads at 4° C. overnight. After centrifugation, supernatants were removed and the beads were incubated with Glycine pH.8 for 2 hours at 4° C. with gentle stirring. The sedimented Sepharose beads were then washed in 0.1 M Sodium Acetate buffer (pH 4), 0.5 M Bicarbonate buffer, and finally in PBS, three times each. The peptides bound to the beads were then saturated for 30 minutes in PBS BSA 0.1% and then incubated for 1 h at 4° C. with equal amounts of cell lysate (H9 or Hela-IN) prealably lysed for 30 min on ice in Lysis buffer (Tris 20 mM, pH 7.2, NaCl 400 mM, EDTA 1 mM, DTT 1 mM, Protease inhibitors EDTA free (Roche Diagnostics) and sonicated twice for 5 sec. at 20%. Beads were washed once in Lysis buffer, and twice in PBS. They were finally resuspended in Laemli blue, migrated on 15% SDS-PAGE gels and analysed by Western Blotting.

For GTKALTAVIPLTEEAE [Peptide P8], the “entry of free peptide into cells” value (HeLa cells) was “not able to enter cells alone”, the “stable complex with RT, retention of RT on beads” value (HIV-1 RT [1]) was “no RT was associated” and the Ki (HIV-1 RT [2]) was 57 ± 19 µM. The “reduction of efficiency of the peptide in comparison to P1” value (HIV-1 RT [2]; relative to P1) was 8 fold.
For GTKWLTEWIPLTAEAE-NH2 [PAW], the koff (HIV-1 RT [3]) was 1.42 ± 0.007 s⁻¹, the “entry of free peptide into cells” value (HeLa cells) was “not able to enter cells alone” and the toxic effect [4] was “without any toxic effect”.
With GTKWLTEWIPLTAEAEC-FITC [PAW-FITC] the IC50 (HIV-1 integrase [5]) was 10000 nM, the “p51 dimeric and associated to PAW” value (HIV-1 p51) was 4.6% and the “time to enter cells” value (HeLa cells; complexed with Pep-1 at 1/10 molar ratio) was “less than 1 h”. The “entry of free peptide into cells” value (HeLa cells) was “poorly enters”, the “lower Kd of labelled FITC-PAW over unlabelled peptide” value (RT:p/t) was 5.6 fold and the Kd (RT:p/t; FITC-PAW fluorescence quenching, read-out: Kd, FITC-PAW binding to RT first incubated with DNA/DNA p/t) was 7.1 ± 2.8 nM. The “increase of affinity for RT in the presence of p/t” value (RT:p/t; relative to RT without p/t) was 5 fold, the Kd (heterodimeric RT) was 33 ± 10 nM and the Ki (HIV-1 RT [2]; Dixon plot, mean of three separate experiments, read-out: Ki (μM), inhibition of polymerase activity of HIV-1 RT) was 2.7 ± 0.7 µM. The “reduction of efficiency (higher Ki) relative to PAW” value (HIV-1 RT [2]; relative to PAW) was 3.8 fold.
“Pep-7: decapeptide (SEQ ID NO: 32) mimicking p66/p51 interface that prevents reverse transcriptase-dimerization (KETWETWWTE; Pep-7 ; described in Morris et al., 1999, JBC, 274, 24941-24946)” was tested, and the “interaction with IN in pull-down” value (HIV-1 integrase [6]) was “does not bind IN”.

— patent US20110294728A1, “Antiviral Polypeptides” (priority 2008, published 2011)
